Data reported in patent publication US20240247080A1, “GLP1/GIP/NPY2 RECEPTOR TRIPLE AGONISTS” (Boehringer Ingelheim International GmbH, priority 2022, published 2024).
Like-named read-outs stand apart in the source and are kept apart here. Starred links: 1 amine or outer side, 2 acyl side, 3 side chain; linkers in the order of their positions; H or OH if unused. Positions of bridges follow the written chain, without caps; N, C: chain ends. Non-standard residues stand in square brackets, D forms with d. Groups on a side chain read outwards from the residue. Chains are numbered I, II in the order given. No end group written: not given here. *: point of attachment. C20 diacid = O=C(O)CCCCCCCCCCCCCCCCCCC(=O)*; C18 diacid = O=C(O)CCCCCCCCCCCCCCCCC(=O)*; γGlu = O=C(O)[C@H](CCC(=O)[*:2])N[*:1]; εLys = N[C@@H](CCCCN[*:1])C(=O)[*:2]; NMeQ = CN[C@@H](CCC(N)=O)C(=O)O; AEEA = NCCOCCOCC(=O)O; Aib = CC(C)(N)C(=O)O

Columns and labels:
Assay type in all cases: cell-based
[1] = target: T1, hGLP1R (Homo sapiens, UniProt P43220); test: hGLP1R CreLuc reporter gene assay in 0.5% and 100% plasma; conditions: CreLuc reporter gene assay
T1 construct: expressed in transfected cells; host or cells: HEK-293 cells carrying a CRE-luciferase reporter gene
T1 sequence (P43220 24-463): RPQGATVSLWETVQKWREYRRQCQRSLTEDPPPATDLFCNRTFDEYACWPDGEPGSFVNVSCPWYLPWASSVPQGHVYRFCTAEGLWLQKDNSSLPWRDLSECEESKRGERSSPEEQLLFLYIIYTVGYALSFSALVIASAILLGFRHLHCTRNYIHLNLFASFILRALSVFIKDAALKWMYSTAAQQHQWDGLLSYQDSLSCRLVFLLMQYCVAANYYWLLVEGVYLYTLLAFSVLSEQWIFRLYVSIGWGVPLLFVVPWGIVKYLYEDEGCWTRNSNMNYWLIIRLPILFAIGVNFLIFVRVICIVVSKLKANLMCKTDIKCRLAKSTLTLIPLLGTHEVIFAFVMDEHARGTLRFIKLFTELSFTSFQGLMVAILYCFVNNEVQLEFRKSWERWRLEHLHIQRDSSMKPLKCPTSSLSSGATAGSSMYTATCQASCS
From the text: (§1) Example 1: hGLPR/hGIPR/hNPY2R CreLuc Assay in 0.5% and 100% Plasma
(§2) CHO and HEK-293 recombinant cell lines express a luciferase reporter gene under control of the cAMP responsive element (CRE). As a second recombinant protein the GLP-1 and NPY2 receptors were expressed in the reporter gene HEK cells, and the GIP receptor was expressed in the reporter gene CHO cells, respectively. Stimulation of these recombinant cells with an agonist leads to an increase of intracellular cAMP levels. In the presence of cAMP, the transcription factor CRE binding protein (CREB) binds to the CRE and to the CREB binding protein (CBP), which leads to transcription of the luciferase reporter gene. Peptides upon serial-dilution in 100% DMSO were transferred into 384-well assay plates with 5 μl pre-dispensed assay buffer (1×HBSS, 20 mM HEPES, pH7.4 supplemented with 0.5% human plasma) using acoustic dispensing on a Labcyte ECHO. Cryo-preserved transgenic reporter gene cells were thawed in assay buffer. 20 μl (10.000 cells/well) were added to the plate with the peptides and incubated for 4 hours at 37° C. in a humidified incubator. Following incubation, assay plates are equilibrated to room temperature, followed by addition of 25 μl of Bright-GIo™ Luciferase reagent, incubation at room temperature for 10 minutes and analysis of luminescence (Envision Reader). Concentration response evaluation of compounds was performed with 8 concentrations of peptides (covering four decades). EC50 values were calculated by non-linear regression using sigmoid concentration-response with variable slope. The same assays were run in the presence of 100% plasma with no additional buffer constituents.

[2] = target: T2, hGIPR (Homo sapiens, UniProt P48546); test: hGIPR CreLuc reporter gene assay in 0.5% and 100% plasma; conditions: CreLuc reporter gene assay
T2 construct: expressed in transfected cells; host or cells: CHO cells carrying a CRE-luciferase reporter gene
T2 sequence (P48546 22-466): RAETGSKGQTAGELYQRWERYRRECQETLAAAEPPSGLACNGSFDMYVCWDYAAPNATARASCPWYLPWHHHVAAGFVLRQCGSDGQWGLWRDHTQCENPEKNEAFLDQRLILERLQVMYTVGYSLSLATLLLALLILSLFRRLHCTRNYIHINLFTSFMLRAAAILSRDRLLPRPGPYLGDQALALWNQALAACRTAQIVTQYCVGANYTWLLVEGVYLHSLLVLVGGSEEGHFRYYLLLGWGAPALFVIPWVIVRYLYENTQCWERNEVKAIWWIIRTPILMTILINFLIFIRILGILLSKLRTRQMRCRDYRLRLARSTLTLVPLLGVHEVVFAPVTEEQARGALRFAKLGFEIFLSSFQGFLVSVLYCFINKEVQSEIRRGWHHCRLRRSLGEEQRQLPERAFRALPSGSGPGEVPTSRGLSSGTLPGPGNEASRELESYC
From the text: as §1, §2

[3] = target: T3, hNPY2R (Homo sapiens, UniProt P49146); test: hNPY2R CreLuc reporter gene assay in 0.5% and 100% plasma; conditions: CreLuc reporter gene assay, 0.5% human plasma; read-out: hNPY2R 0.5% hP
T3 construct: expressed in transfected cells; host or cells: HEK-293 cells carrying a CRE-luciferase reporter gene
T3 sequence (P49146 1-381): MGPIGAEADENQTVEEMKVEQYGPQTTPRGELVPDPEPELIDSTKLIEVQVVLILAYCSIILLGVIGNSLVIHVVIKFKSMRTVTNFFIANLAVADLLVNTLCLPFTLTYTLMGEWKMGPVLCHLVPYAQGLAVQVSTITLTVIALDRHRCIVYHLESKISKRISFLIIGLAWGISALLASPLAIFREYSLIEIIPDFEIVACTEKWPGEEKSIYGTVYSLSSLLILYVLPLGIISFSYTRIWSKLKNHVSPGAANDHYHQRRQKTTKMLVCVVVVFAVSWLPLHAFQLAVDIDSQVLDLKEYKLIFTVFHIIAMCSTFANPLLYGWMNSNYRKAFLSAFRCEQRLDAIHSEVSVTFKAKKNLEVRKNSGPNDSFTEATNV
From the text: as §1, §2

[4] = 0.5% human plasma, read-out: hGLP1R 0.5% hP
[5] = 100% human plasma, read-out: hGLP1R 100% hP
[6] = 0.5% human plasma, read-out: hGIPR 0.5% hP
[7] = 100% human plasma, read-out: hGIPR 100% hP

Substance | EC50 [1, 4] [nM] | EC50 [1, 5] [nM] | EC50 [2, 6] [nM] | EC50 [2, 7] [nM] | EC50 [3] [nM]
H-Y[Aib]EGTFTSDYSI[Aib]LEKQAQ[Aib]AFVQWLIK([γGlu-γGlu-γGlu-γGlu-γGlu-C20 diacid])GGPESGASLRHYYNWLTRQRY-NH2 [Compound 29, Y-Aib-E-G-T-F-T-S-D-Y-S-I-Aib-L-E-K-Q-A-Q-Aib-A-F-V-Q-W-L-I-K(1,3)-GGPESGASLRHYYNWLTRQRY-NH2.C20DA-gGlu-gGlu-gGlu-gGlu-gGlu(1,2)] | 0.13 | 6.74 | 0.23 |  | 
H-Y[Aib]EGTFTSDYSI[Aib]LEKQAQ[Aib]AFVQWLIK([εLys-γGlu-γGlu-γGlu-γGlu-γGlu-C20 diacid])GGPESGASLRHYYNWLTRQRY-NH2 [Compound 61, Y-Aib-E-G-T-F-T-S-D-Y-S-I-Aib-L-E-K-Q-A-Q-Aib-A-F-V-Q-W-L-I-K(1,3)-GGPESGASLRHYYNWLTRQRY-NH2.C20DA-gGlu-gGlu-gGlu-gGlu-gGlu-eLys(1,2)] | 0.11 | 3.95 | 0.36 | 0.56 | 
H-Y[Aib]EGTFTSDYSI[Aib]LEKQAQ[Aib]AFVQWLIK([εLys-γGlu-γGlu-γGlu-γGlu-γGlu-γGlu-C20 diacid])GGPSEGASLRHYYNWLTR[NMeQ]RY-NH2 [Compound 115, Y-Aib-E-G-T-F-T-S-D-Y-S-I-Aib-L-E-K-Q-A-Q-Aib-A-F-V-Q-W-L-I-K(1,3)-G-G-P-S-E-G-A-S-L-R-H-Y-Y-N-W-L-T-R-NMeQ-R-Y-NH2.C20DA-gGlu-gGlu-gGlu-gGlu-gGlu-gGlu-eLys(1,2)] | 0.12 |  | 0.51 |  | 
H-Y[Aib]EGTFTSDYSI[Aib]LEKQAQ[Aib]EFVEWLIK([AEEA-γGlu-γGlu-γGlu-C18 diacid])GGPSEGASLRHYYNWLTRQRY-NH2 [Compound 274, Y-Aib-E-G-T-F-T-S-D-Y-S-I-Aib-L-E-K-Q-A-Q-Aib-E-F-V-E-W-L-I-K(1,3)-GGPSEGASLRHYYNWLTRQRY-NH2.C18DA-gGlu-gGlu-gGlu-OEG(1,2)] | 0.41 |  | 0.23 |  | 
I: H-Y[Aib]EGTFTSDYSI[Aib]LEKQAQ[Aib]EFVQWLIKGGPSEGASLRHYYNWLTRQRY-NH2 / II: {C18 diacid}-EEEEEE (amide I:28-II:C) [Compound 179, Y-Aib-E-G-T-F-T-S-D-Y-S-I-Aib-L-E-K-Q-A-Q-Aib-E-F-V-Q-W-L-I-K(1,3)-GGPSEGASLRHYYNWLTRQRY-NH2.C18DA-E-E-E-E-E-E(1,2)] | 0.22 |  | 0.38 |  | 
Y[Aib]EGTFTSDYSI[Aib]LEKQAQ[Aib]AFIEWLIK([AEEA-AEEA-γGlu-γGlu-γGlu-γGlu-C18 diacid])GGPSEGASLRHYYNWLTRQRY-NH2 [Compound 258, Y-Aib-E-G-T-F-T-S-D-Y-S-I-Aib-L-E-K-Q-A-Q-Aib-A-F-I-E-W-L-I-K(1,3)-GGPSEGASLRHYYNWLTRQRY-NH2.C18DA-gGlu-gGlu-gGlu-glu-OEG-OEG(1,2)] | 0.17 |  | 0.16 | 1.23 | 
Y[Aib]EGTFTSDYSI[Aib]LEKQAQ[Aib]AFVQWLIK([AEEA-AEEA-γGlu-γGlu-γGlu-C18 diacid])GGPSEGASLRHYYNWLTRQRY-NH2 [Compound 266, Y-Aib-E-G-T-F-T-S-D-Y-S-I-Aib-L-E-K-Q-A-Q-Aib-A-F-V-Q-W-L-I-K(1,3)-GGPSEGASLRHYYNWLTRQRY-NH2.C18DA-gGlu-gGlu-gGlu-OEG-OEG(1,2)] | 0.1 | 2.21 | 0.13 | 0.65 | 
Y[Aib]EGTFTSDYSI[Aib]LEKQAQ[Aib]EFVQWLIK([AEEA-AEEA-γGlu-γGlu-γGlu-C18 diacid])GGPSEGASLRHYYNWLTRQRY-NH2 [Compound 160, Y-Aib-E-G-T-F-T-S-D-Y-S-I-Aib-L-E-K-Q-A-Q-Aib-E-F-V-Q-W-L-I-K(1,3)-GGPSEGASLRHYYNWLTRQRY-NH2.C18DA-gGlu-gGlu-gGlu-OEG-OEG(1,2)] | 0.3 |  | 0.33 | 0.91 | 

More lines, now with the values ahead:

EC50 [1, 4] [nM] | EC50 [1, 5] [nM] | EC50 [2, 6] [nM] | EC50 [2, 7] [nM] | EC50 [3] [nM] | Substance
0.11 |  | 0.24 | 1.44 |  | H-Y[Aib]EGTFTSDYSI[Aib]LEKQAQ[Aib]AFVQWLIK([εLys-γGlu-γGlu-γGlu-γGlu-γGlu-γGlu-C20 diacid])GGPESGASLRHYYNWLTRQRY-NH2 [Compound 37, Y-Aib-E-G-T-F-T-S-D-Y-S-I-Aib-L-E-K-Q-A-Q-Aib-A-F-V-Q-W-L-I-K(1,3)-GGPESGASLRHYYNWLTRQRY-NH2.C20DA-gGlu-gGlu-gGlu-gGlu-gGlu-gGlu-eLys(1,2)]
0.4 |  | 0.71 |  |  | H-Y[Aib]EGTFTSDYSI[Aib]LEKQAQ[Aib]AFVQWLIK([εLys-γGlu-γGlu-γGlu-γGlu-γGlu-γGlu-C20 diacid])GGPRYYASLRHYYNWLTRQRY-NH2 [Compound 14, Y-Aib-E-G-T-F-T-S-D-Y-S-I-Aib-L-E-K-Q-A-Q-Aib-A-F-V-Q-W-L-I-K(1,3)-GGPRYYASLRHYYNWLTRQRY-NH2.C20DA-gGlu-gGlu-gGlu-gGlu-gGlu-gGlu-eLys(1,2)]
0.07 |  | 0.25 | 0.73 |  | H-Y[Aib]EGTFTSDYSI[Aib]LEKQAQ[Aib]AFVQWLIK([εLys-γGlu-γGlu-γGlu-γGlu-γGlu-γGlu-C20 diacid])GGPSSGVSLRHYYNWLTRQRY-NH2 [Compound 47, Y-Aib-E-G-T-F-T-S-D-Y-S-I-Aib-L-E-K-Q-A-Q-Aib-A-F-V-Q-W-L-I-K(1,3)-GGPSSGVSLRHYYNWLTRQRY-NH2.C20DA-gGlu-gGlu-gGlu-gGlu-gGlu-gGlu-eLys(1,2)]
0.35 |  | 0.38 | 1.58 |  | H-Y[Aib]EGTFTSDYSI[Aib]LEKQAQ[Aib]EFVQWLIK([AEEA-AEEA-Glu-Glu-Glu-C18 diacid])GGPSEGASLRHYYNWLTRQRY-NH2 [Compound 157, Y-Aib-E-G-T-F-T-S-D-Y-S-I-Aib-L-E-K-Q-A-Q-Aib-E-F-V-Q-W-L-I-K(1,3)-GGPSEGASLRHYYNWLTRQRY-NH2.C18DA-E-E-E-OEG-OEG(1,2)]
 |  |  |  | 26.8 | H-Y[Aib]EGTFTSDYSI[Aib]LE[Aib]KAQ[Aib]EFVEWLIK([εLys-γGlu-γGlu-γGlu-γGlu-γGlu-γGlu-C20 diacid])GGPSSGASLRHYYNWLTRQRY-NH2 [Compound 24, Y-Aib-E-G-T-F-T-S-D-Y-S-I-Aib-L-E-Aib-K-A-Q-Aib-E-F-V-E-W-L-I-K(1,3)-GGPSSGASLRHYYNWLTRQRY-NH2.C20DA-gGlu-gGlu-gGlu-gGlu-gGlu-gGlu-eLys(1,2)]
0.15 |  | 0.33 |  |  | I: H-Y[Aib]EGTFTSDYSI[Aib]LEKQAQ[Aib]AFVEWLIKGGPSEGASLRHYYNWLTRQRY-NH2 / II: {C18 diacid}-EEEEEE (amide I:28-II:C) [Compound 302, Y-Aib-E-G-T-F-T-S-D-Y-S-I-Aib-L-E-K-Q-A-Q-Aib-A-F-V-E-W-L-I-K(1,3)-GGPSEGASLRHYYNWLTRQRY-NH2.C18DA-E-E-E-E-E-E(1,2)]
0.2 |  | 0.25 |  |  | I: H-Y[Aib]EGTFTSDYSI[Aib]LEKQAQ[Aib]AFVQWLIKGGPEEGASLRHYYNWLTRQRY-NH2 / II: {C18 diacid}-EEEEEE[εLys] (amide I:28-II:C) [Compound 196, Y-Aib-E-G-T-F-T-S-D-Y-S-I-Aib-L-E-K-Q-A-Q-Aib-A-F-V-Q-W-L-I-K(1,3)-GGPEEGASLRHYYNWLTRQRY-NH2.C18DA-E-E-E-E-E-E-eLys(1,2)]
